Patent publication US11015224B2, “RAF gene fusions” (THE REGENTS OF THE UNIVERSITY OF MICHIGAN, priority 2010, dated 2021)

Tests used:
BRAFV600E mutation = BRAFV600E mutation (Homo sapiens, UniProt P15056, V600E); details: Sala et al. 2008; cited from earlier work
[1] = tested on: RWPE cells overexpressing ESRP1-RAF1; test: Cell proliferation assay (WST-1); assay type: cell-based, human; details: RWPE cells overexpressing ESRP1-RAF1, FIG. 3d
Source text: Cell invasion and proliferation assays.

[2] = tested on: RWPE cells expressing SLC45A3-BRAF; details: sorafenib (10 μM) or U0126 (1 or 10 μM), FIG. 4a,b
Method: (§1) Cell invasion and proliferation assays. Equal numbers of cells were plated into 96-well plates, and a cell proliferation assay was performed using WST-1 reagent (Roche) following the manufacturer's protocol. For the Boyden chamber Matrigel invasion assay, equal numbers of cells were plated into each Matrigelcoated transwell in the presence of sorafenib or U0126 (Calbiochem) or DMSO (Sigma). Invasion assays were performed as described previously (Kleer, C. G. et al. Proc. Natl. Acad. Sci. USA 100, 11606-11611 (2003); Cao, Q. et al. Oncogene 27, 7274-7284 (2008)).

[3] = tested on: RWPE cells expressing ESRP1-RAF1; details: sorafenib (10 μM) or U0126 (1 or 10 μM), FIG. 4a,b
Method: as §1

[4] = tested on: RWPE cells overexpressing SLC45A3-BRAF; details: FIG. 3c
Method: as §1

[5] = tested on: RWPE cells stably expressing ESRP1-RAF1; details: sorafenib or U0126 (10 μM), 14 d, FIG. 4c,d
Method: (§2) In vitro soft agar growth. For in vitro growth in soft agar, 2 ml of 0.6% SeaPlaque GTG Agarose (Cambrex) dissolved in complete keratinocyte supplement-free medium (Invitrogen) was poured into six-well dishes. After polymerization, a second layer containing 2 ml of 0.4% agar in complete keratinocyte supplement-free medium, and RWPE cells stably expressing SLC45A3-BRAF or ESRP1-RAF 1 (1×10^4 cells per well) were poured on top. The next day, cells were treated with sorafenib or U0126 (10 μM) in 1 ml of supplement-free keratinocyte medium. Soft-agar assay plates were incubated for 14 d at 37° C. MEK inhibitor (U0126) or sorafenib was changed once a week. Each experimental condition was done in triplicate. On day 14, colonies larger than 40 μm in diameter were counted.

[6] = tested on: RWPE cells stably expressing SLC45A3-BRAF; details: sorafenib or U0126 (10 μM), 14 d, FIG. 4c,d
Method: as §2

[7] = tested on: MEK and ERK phosphorylation in RWPE cells expressing ESRP1-RAF1; details: U0126 (10 μM) for 2 h, FIG. 4e
Method: (§3) MEK-ERK signaling pathway analysis. Stable pooled populations of RWPE cells expressing SLC45A3-BRAF or […] were maintained in supplement-free medium without supplements for 2 h. For MEK inhibitor treatments, U0126 (10 μM) was added in the supplement-free keratinocyte medium for 2 h. MEK and ERK activation was assessed by western blot analysis with antibodies to phospho-MEK or ERK and total MEK or ERK antibodies (Cell Signaling Technologies).

[8] = tested on: MEK½ and ERK½ phosphorylation in BRAFV600E mutation-positive melanoma cell line SK-MEL-94; details: SK-MEL-94 control cell line
Method: as §3

[9] = tested on: MEK and ERK phosphorylation in RWPE cells expressing SLC45A3-BRAF; details: U0126 (10 μM) for 2 h, FIG. 4e
Method: as §3

[10] = tested on: DUSP6 or SPRY2 mRNA expression in RWPE cells expressing ESRP1-RAF1; details: U0126, 10 mM, 2 hours, Keratinocyte-supplement free media, FIG. 11
Method: as §3
(§4) Real Time PCR validation. Quantitative PCR (QPCR) was performed using Power SYBR Green Mastermix (Applied Biosystems) on an Applied Biosystems StepOnePlus Real-Time PCR System. All oligonucleotide primers were obtained from Integrated DNA Technologies and are listed below. The GAPDH primer was used as a control. All assays were performed and repeated twice and results were plotted as average fold change relative to GAPDH.

[11] = tested on: DUSP6 or SPRY2 mRNA expression in RWPE cells expressing SLC45A3-BRAF; details: U0126, 10 mM, 2 hours, Keratinocyte-supplement free media, FIG. 11
Method: as §3, §4

Chain of BRAFV600E mutation (P15056 whole entry V600E): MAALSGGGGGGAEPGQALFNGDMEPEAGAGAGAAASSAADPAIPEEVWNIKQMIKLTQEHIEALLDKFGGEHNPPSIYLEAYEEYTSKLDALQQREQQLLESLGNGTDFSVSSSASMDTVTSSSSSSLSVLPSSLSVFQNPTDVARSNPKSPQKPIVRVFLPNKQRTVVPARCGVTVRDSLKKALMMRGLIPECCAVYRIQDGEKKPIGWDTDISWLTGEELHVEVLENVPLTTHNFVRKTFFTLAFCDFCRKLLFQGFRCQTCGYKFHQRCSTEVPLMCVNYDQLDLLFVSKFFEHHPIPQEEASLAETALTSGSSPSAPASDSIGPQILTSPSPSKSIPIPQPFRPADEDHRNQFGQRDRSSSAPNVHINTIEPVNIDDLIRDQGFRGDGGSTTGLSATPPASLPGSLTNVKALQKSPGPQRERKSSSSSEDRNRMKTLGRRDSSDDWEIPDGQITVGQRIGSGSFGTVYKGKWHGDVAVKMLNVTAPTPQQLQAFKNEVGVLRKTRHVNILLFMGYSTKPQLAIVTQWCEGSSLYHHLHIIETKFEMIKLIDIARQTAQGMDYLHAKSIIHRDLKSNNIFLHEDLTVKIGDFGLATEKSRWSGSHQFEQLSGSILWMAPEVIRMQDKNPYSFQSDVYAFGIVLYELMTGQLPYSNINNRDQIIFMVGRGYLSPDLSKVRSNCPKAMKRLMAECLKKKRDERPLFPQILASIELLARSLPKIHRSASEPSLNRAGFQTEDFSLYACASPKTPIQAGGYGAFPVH

Structure (SMILES) | selectivity for the BRAFV600E mutation (BRAFV600E mutation) | increased cell proliferation, sensitivity to inhibitor [1] | fusion-mediated cell invasion, sensitivity to inhibitor [2] | fusion-mediated cell invasion, sensitivity to inhibitor [3] | increased cell proliferation, sensitivity to inhibitor [4] | anchorage-independent colony growth in soft agar, sensitivity to inhibitor [5] | anchorage-independent colony growth in soft agar, sensitivity to inhibitor [6] | MEK and ERK phosphorylation, sensitivity to inhibitor [7] | MEK½ and ERK½ phosphorylation [8] | MEK and ERK phosphorylation, sensitivity to inhibitor [9] | DUSP6 or SPRY2 mRNA expression [10] | DUSP6 or SPRY2 mRNA expression [11]
CC(C)S(=O)(=O)Nc1ccc(F)c(C(=O)c2c[nH]c3ncc(-c4cccnc4)cc23)c1F [PLX-4032] | highly selective | – | – | – | – | – | – | – | – | – | – | –
CNC(=O)c1cc(Oc2ccc(NC(=O)Nc3ccc(Cl)c(C(F)(F)F)c3)cc2)ccn1 [sorafenib, N-(3-trifluoromethyl-4-chlorophenyl)-N′-(4-(2-methylcarbamoylpyridin-4-yl)oxyphenyl)urea] | – | sensitive | sensitive | sensitive | sensitive | sensitive | sensitive | – | – | – | – | –
N#CC(=C(/N)Sc1ccccc1N)/C(C#N)=C(\N)Sc1ccccc1N [U0126] | – | – | sensitive | sensitive | – | sensitive | sensitive | sensitive | decreased | sensitive | significantly decreases | significantly decreases
